37 molecules from PubChem BioAssay AID463203 (Broad Institute, 2010) can be followed below.

This test concerns the target Glycogen synthase kinase-3 alpha (Homo sapiens) (UniProt P49840). Briefly: concentration-response blocking of human GSK3A – biochemical, luminescence, cell-free homogeneous, retest, dose response (AID 463203). Particulars: GSK-3 alpha enzyme, ADP-Glo luminescence, 60 min. Background: ADP-Glo turns the ADP formed in a reaction into a luminescent signal.

Calls of active or inactive are those of the source.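 How the source made its calls: active means more than half of replicate measurements showing over 20% loss of kinase signal relative to plate controls; inconclusive means some but at most half of replicates over 20% loss; inactive means no replicate over 20% signal loss.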

Sequence of Glycogen synthase kinase-3 alpha (Homo sapiens) (P49840 whole entry, looked up): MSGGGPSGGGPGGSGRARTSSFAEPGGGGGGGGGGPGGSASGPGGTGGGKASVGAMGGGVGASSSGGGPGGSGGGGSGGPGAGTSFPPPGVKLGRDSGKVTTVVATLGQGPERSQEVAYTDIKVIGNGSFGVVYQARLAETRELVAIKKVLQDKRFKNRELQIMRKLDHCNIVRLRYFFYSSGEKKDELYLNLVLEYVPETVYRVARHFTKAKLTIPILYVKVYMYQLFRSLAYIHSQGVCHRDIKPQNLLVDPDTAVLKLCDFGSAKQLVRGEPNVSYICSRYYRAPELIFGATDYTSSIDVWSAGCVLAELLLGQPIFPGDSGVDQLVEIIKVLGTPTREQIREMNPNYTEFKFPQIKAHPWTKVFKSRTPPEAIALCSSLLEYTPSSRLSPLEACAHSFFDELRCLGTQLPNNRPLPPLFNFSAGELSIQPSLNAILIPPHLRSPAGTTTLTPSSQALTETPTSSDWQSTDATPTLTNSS

Consider `CC1CCc2c(sc(NC(=O)CCCn3cnc([N+](=O)[O-])n3)c2C(N)=O)C1` (configuration not stated), for which the AC50 (in general, the concentration giving half of the maximal activity seen) is > 30 µM (inactive).

In the case of `Cc1cccc(N=c2oc3cc(O)ccc3cc2C(N)=O)c1`, the concentration at half-maximal activity (AC50) is 5.52 µM.

`CC1(C)CC(=O)C(C=Nc2ccc(O)cc2)=C(O)C1`: the AC50 was > 30 µM (inactive).

For the molecule `COc1ccc(CCNc2ccc(S(=O)(=O)N3CCCC3)cc2[N+](=O)[O-])cc1`, the AC50 was > 30 µM (inactive).

In the case of `CCc1cc2c(NCc3ccco3)ncnc2s1`, the AC50 is > 30 µM (inactive).

Turning to `N#CC(C#N)=Cc1c[nH]c(=O)c(C#N)c1Nc1ccccc1`, the AC50 is 9.4 µM.

For `Cc1ccc(C(=O)N2NC(c3ccccc3F)C3C(=O)N(c4cccc(C)c4)C(=O)C32)cc1` (configuration not stated), the AC50 was > 30 µM (inactive).

In the case of `COc1ccc(OC)c(C2CC(=O)N3CN(c4ccccc4)CSC3=C2C#N)c1` (configuration not stated), the AC50 is > 30 µM (inactive).

In the case of `CC(C)(C)NC(=O)/C(=C\c1ccccc1F)NC(=O)c1ccc([N+](=O)[O-])cc1`, the AC50 was > 30 µM (inactive).

As to `COc1cccc(-n2c(SCC(=O)NC3CCCC3)nnc2-c2ccco2)c1`, the AC50 was > 30 µM (inactive).

Consider `Cc1oc2ccc(O)cc2c1C(=O)c1ccc(Br)cc1`, for which the AC50 was > 30 µM (inactive).

`CCCCCCCCCCCCCCCC[N+](C)(C)CC`: the AC50 is > 30 µM (inactive).

As for `Cc1ccc(-c2nnc(CSc3nnc(C)s3)o2)cc1`, the AC50 was > 30 µM (inactive).

In the case of `CCc1c(C)c(C#N)c2nc3ccccc3n2c1NCc1ccccn1`, the AC50 is 16.8 µM.

As for `CC(=O)Oc1ccc2ccc(=O)oc2c1`, the AC50 is > 30 µM (inactive).

As to `COc1ccc(Cl)cc1Nc1nc(N)c2ccccc2n1`, the AC50 was > 30 µM (inactive).

As to `Cc1csc(NC(=O)C2CCCN2C(=O)OCC(C)C)n1` (configuration not stated), the AC50 was > 30 µM (inactive).

As to `COc1cccc(NC(=O)[C@@H]2CCCN2S(=O)(=O)c2cccc3cccnc23)c1`, the half-maximal activity concentration (AC50) was 18.1 µM.

As for `O=C(Nc1cc(F)cc(F)c1)c1ccc(NCCCN2CCCCCC2)c([N+](=O)[O-])c1`, the AC50 is > 30 µM (inactive).

For the molecule `CCOC(=O)c1ccc(NC(=S)NCCc2ccccc2)cc1`, the AC50 was > 30 µM (inactive).

Take `Cc1cc2c(C)c(C)c(=O)[nH]c2cc1N`: the AC50 is > 30 µM (inactive).

With `N#Cc1cnn2c3c(cnc12)C(=O)N1CCc2ccccc2C1C3` (configuration not stated), the AC50 was > 30 µM (inactive).

As for `CN(C)CCCNc1oc(-c2ccccc2)nc1C#N`, the AC50 is > 30 µM (inactive).

Turning to `COC(=O)[C@@H](NC(=O)NCc1ccc(F)cc1)C(C)C`, the AC50 is > 30 µM (inactive).

Turning to `O=C(c1ccco1)N(Cc1ccccc1)c1cccc([N+](=O)[O-])c1`, the AC50 was > 30 µM (inactive).

Regarding `CCCNC(=O)NC(C)C12CC3CC(CC(C3)C1)C2` (configuration not stated), the AC50 was > 30 µM (inactive).

`CC(C)(C)c1cc(-c2nc(N)nc(N)n2)c(O)c(C(C)(C)C)c1`: the AC50 is > 30 µM (inactive).

On to `Cc1cc2nc(-c3cccnc3SCC(=O)NC3CC3)[nH]c2cc1C`, for which the AC50 is > 30 µM (inactive).

In the case of `CC1=C(C(=O)OC(C)C)C(c2cccc(F)c2)n2ncnc2N1` (configuration not stated), the AC50 was > 30 µM (inactive).

For `Oc1ccc(-c2nnc(-c3ccc(O)cc3)nn2)cc1`, the AC50 was > 30 µM (inactive).

As to `O=C1CCCC2=C1C(c1ccc(Br)cc1)c1c([nH]c(=S)[nH]c1=O)N2` (configuration not stated), the AC50 was > 30 µM (inactive).

With `O=c1[nH]nnc2c1sc1nc(N3CCOCC3)c3c(c12)CCCC3`, the AC50 is 13.4 µM.

Regarding `Cc1ccnc(NC(=O)CCC(=O)N(CC(=O)NCc2ccccc2)Cc2ccco2)c1`, the concentration at half-maximal activity (AC50) was 13.4 µM.

Regarding `CC1(C)Cc2cccc(C(=O)Nc3ccc(Cl)cc3)c2O1`, the AC50 is > 30 µM (inactive).

On to `CCOC(=O)c1cccc(NC(=O)C2CCCN2S(=O)(=O)c2cccc3cccnc23)c1` (configuration not stated), for which the AC50 was 29.5 µM.

As for `c1nc(NC2CCCCCC2)c2[nH]cnc2n1`, the half-maximal activity concentration (AC50) is 29.8 µM.

In the case of `O=C(NC1CCCC1)c1cccc(NC(=O)c2ccco2)c1`, the AC50 is > 30 µM (inactive).
